ChEMBL document CHEMBL1201862, “PubChem BioAssay data set” (2004)
Calls of active or inactive are those of the source. For most assays here, no stated cut-off is given here; in the data, actives have a measured EC50 and inactives only a lower limit.

Experiments:
[1] = NIH-3T3 fibroblast cytotoxicity, dose response, cytotoxicity control, cell-based, fluorescence, Alamar Blue, secondary assay (AID 2327); type: functional;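 further: NIH-3T3 mouse fibroblasts cultured with fluconazole at 8 µg/mL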
[2] = luciferase reporter signal suppression in cells – H4 neuroglioma cells, luminescence, dose response (AID 1990); type: functional, cell-based
[3] = Luminescence Cell-Based Dose Response HTS to Identify Inhibitors of 5'UTR Stem-Loop Driven Prion Protein mRNA Translation in H4 Neuroglioblastoma Cells. [Related pubchem assays: 1827 (Project Summary), 1813 (Primary HTS)]; type: functional
[4] = alpha-synuclein stem-loop luciferase translation blockers – H4 neuroglioma cells, luminescence, confirmation (AID 1988); type: functional, cell-based
[5] = fluconazole-exposed Candida albicans growth modulators – fluorescence, retest, confirmation (AID 2467); type: functional, cell-based
BJ [6] = assay: BJ-TERT fibroblast viability loss – cell-based, RAS-independent, luminescence, dose response (AID 1933); type: functional; conditions: Homo sapiens
BJ [7] = assay: cells; type: functional, cell-based; conditions: Homo sapiens
BJ [8] = assay: BJ-TERT-LT-ST fibroblast viability loss – cell-based, RAS-independent, luminescence, dose response (AID 1935); type: functional; conditions: Homo sapiens;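 further: BJ fibroblasts immortalized with TERT plus LT and ST oncogenes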
[9] = DRD fibroblast viability loss – cell-based, non-viral oncogenic, luminescence, dose response (AID 1934); type: functional; conditions: Homo sapiens
[10] = biological target: T1, Heat shock factor protein 1 (Mus musculus, UniProt P38532); assay: enhancement of HSF1-driven luciferase signal – cell-based, NIH3T3, luminescence, dose retest, confirmation (AID 435004); type: functional;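 further: stress induced by proteasome inhibitor MG132 added 30 min after compound; luciferase reporter driven by HSF1 response element in NIH3T3 cells; actives raise luminescence as potentiators of the MG132 stress response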
T1 sequence (P38532 whole entry): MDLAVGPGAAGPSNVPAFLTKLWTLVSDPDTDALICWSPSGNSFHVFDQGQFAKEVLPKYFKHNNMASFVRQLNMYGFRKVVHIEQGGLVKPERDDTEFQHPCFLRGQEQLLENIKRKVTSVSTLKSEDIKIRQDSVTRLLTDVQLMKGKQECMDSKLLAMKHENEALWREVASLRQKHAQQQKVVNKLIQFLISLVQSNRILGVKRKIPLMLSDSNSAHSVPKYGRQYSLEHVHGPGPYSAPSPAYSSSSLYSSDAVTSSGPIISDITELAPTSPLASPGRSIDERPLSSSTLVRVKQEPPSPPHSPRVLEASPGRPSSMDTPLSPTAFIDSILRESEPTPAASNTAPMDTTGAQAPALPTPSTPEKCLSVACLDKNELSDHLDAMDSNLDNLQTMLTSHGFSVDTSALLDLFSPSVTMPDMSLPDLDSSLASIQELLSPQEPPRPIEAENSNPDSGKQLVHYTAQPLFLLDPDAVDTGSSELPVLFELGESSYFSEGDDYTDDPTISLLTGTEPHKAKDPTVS

[11] = biological target: Luciferin 4-monooxygenase (Photinus pyralis, UniProt P08659); assay: inhibition of purified Photinus pyralis luciferase – biochemical, luminescence, dose response (AID 1891)
[12] = Luminescence Cell-Based Dose Confirmation HTS to Identify Inhibitors of Platelet Dense Granule Release. [Related pubchem assays: 1663 (Primary HTS), 1678 (Summary of Project)]; type: functional
[13] = tested on: Streptococcus sp. 'group A'; assay: Streptococcus pyogenes SK(-)GAS viability under kanamycin – luminescence, BacTiterGlo, confirmation, counter-screen for streptokinase expression inhibitor project, dose response (AID 1900); type: functional, organism-based
Streptokinase A = biological target: T2, Streptokinase A (Streptococcus pyogenes serotype M1, UniProt P10520); assay: viability-normalized secreted streptokinase activity reduction – plasminogen activation absorbance, OD405, dose response (AID 1914); type: functional, Streptococcus pyogenes M1 GAS;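 further: secreted streptokinase activity via plasminogen activation per viability signal from cell pellet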
T2 sequence (P10520 whole entry): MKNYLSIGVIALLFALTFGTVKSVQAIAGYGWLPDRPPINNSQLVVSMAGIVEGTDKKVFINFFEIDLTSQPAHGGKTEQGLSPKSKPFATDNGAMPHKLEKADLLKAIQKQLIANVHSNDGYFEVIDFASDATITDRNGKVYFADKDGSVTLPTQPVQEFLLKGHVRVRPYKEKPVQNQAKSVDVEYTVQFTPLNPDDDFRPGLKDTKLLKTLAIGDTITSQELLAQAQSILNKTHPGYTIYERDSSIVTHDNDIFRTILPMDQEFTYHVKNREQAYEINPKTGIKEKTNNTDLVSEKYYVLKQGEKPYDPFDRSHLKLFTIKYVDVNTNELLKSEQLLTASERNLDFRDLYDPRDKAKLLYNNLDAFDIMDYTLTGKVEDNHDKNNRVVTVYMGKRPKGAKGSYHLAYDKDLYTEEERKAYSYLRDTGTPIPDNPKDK

Streptococcus = assay: GAS UMAA2166 growth inhibition – luminescence, BacTiterGlo, counter-screen for streptokinase expression inhibitor project, dose response (AID 1915); type: functional, organism-based;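 further: potency for reduction of bacterial viability or growth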
Vero = assay: cells; type: functional; conditions: Chlorocebus sabaeus
H9c2 = assay: cells; type: functional, cell-based; conditions: Rattus norvegicus, H9c2, Myocardium;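 further: confirmatory concentration-response retest of ultra-high-throughput screening hits for modulation of myocardial damage; cell death induced by hydrogen peroxide oxidative stress; compound pretreatment for 60 min then peroxide exposure for 2 h; potency is for protecting the cells against peroxide damage rather than for killing them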
Paired box protein Pax-8 = Paired box protein Pax-8 (Homo sapiens, UniProt Q06710); assay: PAX8 transcriptional activity inhibition in RMG-I – RMG-I cells, luciferase, cherry-pick, dose response (AID 687027); type: functional, cell-based;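 further: luciferase reporter driven by Pax8 target thyroperoxidase promoter measured by SteadyGlo luminescence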
[14] = Luminescence Cell-Based Dose Confirmation HTS to Identify Activators of 5'UTR Stem-Loop Driven Alpha-Synuclein mRNA Translation in H4 Neuroglioblastoma Cells. [Related pubchem assays: 1829 (Project Summary), 1814 (Primary HTS)]; type: functional
[15] = Luminescence Cell-Based Dose Response HTS to Identify Activators of Luciferase Translation or Activity in H4 […] Cells. [Related pubchem assays: 1829 (Project Summary), 1814 (Primary HTS)]; type: functional
H4 = assay: Luminescence Cell-Based Dose Response HTS to Identify Activators of 5'UTR Stem-Loop Driven Prion Protein mRNA Translation in H4 Neuroglioblastoma Cells. [Related pubchem assays: 1829 (Project Summary), 1814 (Primary HTS)]; type: functional; conditions: Homo sapiens
INS1 = assay: INS-1E survival protection against cytokine death – cell-based, luminescence, retest, dose response (AID 449756); type: functional; conditions: Rattus norvegicus;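 further: cell death triggered by IL-1 beta plus TNF-alpha plus IFN-gamma mixture; protective hits raise ATP signal compared with cytokine alone wells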

Chain of Luciferin 4-monooxygenase (P08659 whole entry): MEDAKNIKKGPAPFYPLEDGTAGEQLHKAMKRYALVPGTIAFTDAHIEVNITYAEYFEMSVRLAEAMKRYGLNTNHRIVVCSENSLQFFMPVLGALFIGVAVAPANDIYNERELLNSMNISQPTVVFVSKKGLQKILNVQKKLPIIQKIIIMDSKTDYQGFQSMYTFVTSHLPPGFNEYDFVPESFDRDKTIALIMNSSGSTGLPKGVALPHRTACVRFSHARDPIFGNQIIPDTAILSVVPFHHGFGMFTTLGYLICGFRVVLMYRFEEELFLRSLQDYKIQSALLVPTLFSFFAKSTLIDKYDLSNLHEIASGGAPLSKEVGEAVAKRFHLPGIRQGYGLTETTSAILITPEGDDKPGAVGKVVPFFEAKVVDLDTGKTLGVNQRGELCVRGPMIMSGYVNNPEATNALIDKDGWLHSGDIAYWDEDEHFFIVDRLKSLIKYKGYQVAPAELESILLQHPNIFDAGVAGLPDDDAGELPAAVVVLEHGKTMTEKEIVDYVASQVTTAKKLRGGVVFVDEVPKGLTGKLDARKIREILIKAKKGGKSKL
Chain of Paired box protein Pax-8 (Q06710 whole entry): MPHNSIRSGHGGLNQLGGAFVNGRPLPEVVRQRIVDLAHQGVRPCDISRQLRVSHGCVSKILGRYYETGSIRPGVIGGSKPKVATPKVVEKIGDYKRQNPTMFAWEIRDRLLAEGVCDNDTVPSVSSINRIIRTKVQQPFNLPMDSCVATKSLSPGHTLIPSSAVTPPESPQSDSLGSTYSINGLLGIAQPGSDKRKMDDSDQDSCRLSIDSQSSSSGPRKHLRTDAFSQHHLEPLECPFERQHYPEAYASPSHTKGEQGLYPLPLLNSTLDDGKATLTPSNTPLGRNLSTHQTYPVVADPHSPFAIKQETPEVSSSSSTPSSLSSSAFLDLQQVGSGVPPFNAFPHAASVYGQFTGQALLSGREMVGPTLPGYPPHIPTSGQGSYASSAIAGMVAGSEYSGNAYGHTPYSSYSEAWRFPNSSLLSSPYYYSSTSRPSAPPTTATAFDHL

O=C(Nc1ccc(OCc2ccccc2Cl)cc1)c1cccnc1
EC50 [1]: > 150 µM (inactive) | EC50 [2]: 3.07 µM (active) | EC50 [3]: 0.909 µM (active) | EC50 [4]: 0.485 µM (active) | EC50 [5]: > 38 µM (not active)

N#CC1=C(N)Oc2cc(N)ccc2C1c1cccc(F)c1 (stereo not drawn)
EC50 (BJ [6]): 10.8 µM (active) | EC50 (BJ [7]): 34 µM (active) | EC50 (BJ [8]): 14.2 µM (inconclusive) | EC50 [9]: 16.5 µM (active)

CCc1ccc(N(C(=O)c2snc(C(N)=O)c2N)C(C(=O)NCCC(C)C)c2c[nH]c3ccccc23)cc1 (stereo not drawn)
EC50 [10]: 139 µM (active)

Cn1c(=O)c2c(nc(SCCN3CCOCC3)n2Cc2ccccc2Cl)n(C)c1=O
EC50 [11]: > 112 µM (not active) | EC50 [12]: > 112 µM (not active)

CC(C)OC(=O)c1c2nc3ccccc3nc2n2c1nc(O)c1ccccc12
EC50 [13]: 1.24 µM (active) | EC50 (Streptokinase A): > 150 µM (not active) | EC50 (Streptococcus): 39.6 µM (active)

COc1ccc(C=C2c3ccccc3C(=O)c3ccccc32)c(OC)c1
EC50 (BJ [6]): 2.8 µM (inconclusive) | EC50 (BJ [7]): 2.33 µM (inconclusive) | EC50 (BJ [8]): 18.3 µM (inconclusive) | EC50 [9]: 2.6 µM (active) | CC50 (Vero): < 0.05 µM (active)

COC(=O)c1ccc(Cl)c(NC(=O)CSc2nnc(-c3ccncc3)o2)c1
EC50 [13]: > 150 µM (not active) | EC50 (Streptokinase A): > 150 µM (not active) | EC50 (Streptococcus): > 150 µM (not active)

COc1ccc(C(=O)NC2CCN(C(S)=NCc3ccco3)CC2)cc1
EC50 [10]: > 260 µM (inactive)

CN(C)CCOC1(Cc2ccc(F)cc2)CCC(C(C)(C)C)CC1 (stereo not drawn)
CC50 (Vero): > 25 µM (active)

COc1ccc(OC(=O)N2C/C(=C/c3ccccc3)C(=O)/C(=C\c3ccccc3)C2)cc1
CC50 (Vero): 9.88 µM (active)

C=CCc1ccccc1OCC(=O)N/N=C/c1ccc(OC(C)=O)cc1OC(C)=O
EC50 [2]: 12.3 µM (active) | EC50 [3]: 14.6 µM (active) | EC50 [4]: 10.6 µM (active) | IC50 (H9c2): > 79 µM (inactive)

C[C@@H]1CCCCO[C@@H](CN(C)C(=O)C2CCCCC2)[C@H](C)CN([C@H](C)CO)C(=O)c2cc(NS(=O)(=O)c3ccc(Cl)cc3)ccc2O1
AC50 (Paired box protein Pax-8): 4.99 µM (active)

COc1ccc2o/c(=N\O)c(C(=O)Nc3ccc(C)cc3)cc2c1
EC50 [14]: 16.6 µM (active) | EC50 [15]: 14.1 µM (active) | EC50 (H4): 15.2 µM (active) | CC50 (Vero): > 25 µM (active)

Cc1ccc(-c2nc(N/N=C/c3cccnc3)c3ccccc3n2)cc1
EC50 [11]: 0.798 µM (active) | EC50 [12]: 1.02 µM (active) | AC50 (INS1): 6.77 µM (active)

COc1ccc(/N=C2/C(=N\c3ccc(OC)cc3)N(c3ccc(OC)cc3)C(=S)N2C(=O)c2ccc(OC)cc2)cc1
EC50 [10]: > 260 µM (inactive)

CCn1cc(/C=N\NC(=O)c2ccc3c(c2)c(C)c(C)n3Cc2ccccc2)c(C)n1
EC50 (BJ [6]): > 150 µM (not active) | EC50 (BJ [7]): > 150 µM (not active) | EC50 (BJ [8]): > 150 µM (not active) | EC50 [9]: > 150 µM (not active)
